What all share (assay): In vitro antibacterial activity (MIC), agar dilution method according to NCCLS
Common to all, as to assay type: cell-based

Experiment [1] relates to S. aureus MR5867 (methicillin-resistant S. aureus). The settings on record: Muller-Hinton agar medium. As for the experimental part: (§1) The in vitro antibacterial activity (as measured by the minimum inhibitory concentration (MIC)) was determined for each of the compounds of the present invention by the agar dilution method according to NCCLS (National Committee for Clinical Laboratory Standard (1997), Methods for Dilution Antibacterial Susceptibility Tests for Bacteria that grow Aerobically-Forth Edition: Approved Standard m7-A4. NCCLS, Villanova, Pa.), which involved the use of Muller-Hinton agar medium.

The test system of experiment [2] is S. aureus MS16401 (quinolone-resistant S. aureus). The settings on record: Muller-Hinton agar medium. As for the experimental part: as §1
For experiment [3], the system named is S. aureus Smith. The settings on record: Muller-Hinton agar medium. As for the experimental part:
as §1

Experiment [4] has as its system S. pneumoniae Type III. The settings on record: Muller-Hinton agar medium containing 5% defibrinated equine blood.
Experiment [5] relates to E. faecalis IID682. On the set-up: unit not given here. The settings on record: Muller-Hinton agar medium containing 5% defibrinated equine blood.

Molecules are shown by their SMILES. Converted amounts (≈) assume the structure as drawn.

On to `C=C1COc2c(N3CC[C@@H](CNC4CC4)C3)c(F)cc3c(=O)c(C(=O)O)cn1c23` [Example 7, 10-[(3S)-3-cyclopropylaminomethyl-1-pyrrolidinyl]-9-fluoro-2,3-dihydro-3-methylene-7-oxo-7H-pyrido[1,2,3-d,e][1,4]benzoxazine-6-carboxylic acid], for which the MIC result in experiment [1] was “≦0.008 mg/mL”; in experiment [2], 63 µg/mL (≈ 158 µM); in experiment [3], “≦0.008 mg/mL”; in experiment [4], 0.016; in experiment [5] it was 0.125.

For `O=C(O)c1cn2c3c(c(N4CC[C@@H](CNC5CC5)C4)c(F)cc3c1=O)OC[C@@H]2CO` [Example 6, (3S)-10-[(3S)-3-cyclopropylaminomethyl-1-pyrrolidinyl]-9-fluoro-2,3-dihydro-3-hydroxymethyl-7-oxo-7H-pyrido[1,2,3-d,e][1,4]benzoxazine-6-carboxylic acid], the MIC is 0.25 in experiment [1]; 4000 µg/mL (≈ 9580 µM) in experiment [2]; 0.25 in experiment [3]; 0.125 in experiment [4]; 0.25 in experiment [5].

Regarding `C[C@H]1CN(c2c(F)cc3c(=O)c(C(=O)O)cn4c3c2OC[C@@H]4C)C[C@@H]1CNC1CC1` [Example 11, (3S)-10-[(3S,4R)-3-cyclopropylaminomethyl-4-methyl-1-pyrrolidinyl]-9-fluoro-2,3-dihydro-3-methyl-7-oxo-7H-pyrido[1,2,3-d,e][1,4]benzoxazine-6-carboxylic acid], the MIC in experiment [1] stood at 0.008; in experiment [2], 31 µg/mL (≈ 74.6 µM); in experiment [3], 0.008; in experiment [4], 0.016; in experiment [5], 0.063.

For the molecule `C[C@H]1COc2c(N3C[C@H](NC4CC4)[C@@H](F)C3)c(F)cc3c(=O)c(C(=O)O)cn1c23` [Example 21, (3S)-10-[(3S,4S)-3-cyclopropylamino-4-fluoro-1-pyrrolidinyl]-9-fluoro-2,3-dihydro-3-methyl-7-oxo-7H-pyrido[1,2,3-d.e][1,4]benzoxazine-6-carboxylic acid], the MIC is 0.016 in experiment [1]; 31 µg/mL (≈ 76.5 µM) in experiment [2]; 0.016 in experiment [3]; 0.016 in experiment [4]; 0.063 in experiment [5].

As to `O=C(O)c1cn2c3c(c(N4CC[C@@H](CNC5CC5)C4)c(F)cc3c1=O)OC[C@@H]2CF` [Example 1, (3R)-10-[(3S)-3-cyclopropylaminomethyl-1-pyrrolidinyl]-9-fluoro-3-fluoromethyl-2,3-dihydro-7-oxo-7H-pyrido[1,2,3-d,e][1,4]benzoxazine-6-carboxylic acid], the MIC in experiment [1] turned out to be 0.016; in experiment [2], 125 µg/mL (≈ 298 µM); in experiment [3], 0.016; in experiment [4], 0.032; in experiment [5] it was 0.063.

On to `C[C@@H]1CN(c2c(F)cc3c(=O)c(C(=O)O)cn4c3c2OC[C@@H]4CF)C[C@H]1CNC1CC1` (relative stereo) [Example 16, (3R)-10-(trans-3-cyclopropylaminomethyl-4-methyl-1-pyrrolidinyl)-9-fluoro-3-fluoromethyl-2,3-dihydro-7-oxo-7H-pyrido[1,2,3-d,e][1,4]benzoxazine-6-carboxylic acid], for which the MIC in experiment [1] turned out to be 0.016; in experiment [2], 63 µg/mL (≈ 145 µM); in experiment [3] it was 0.016; in experiment [4] it was 0.032; in experiment [5] it was 0.063.

In the case of `C[C@H]1CN(c2c(F)cc3c(=O)c(C(=O)O)cn4c3c2OC[C@@H]4CF)C[C@@H]1CNC1CC1` [Example 17, (3R)-10-[(3S,4R)-3-cyclopropylaminomethyl-4-methyl-1-pyrrolidinyl]-9-fluoro-3-fluoromethyl-2,3-dihydro-7-oxo-7H-pyrido[1,2,3-d,e][1,4]benzoxazine-6-carboxylic acid], the MIC stood at 0.008 in experiment [1]; 63 µg/mL (≈ 145 µM) in experiment [2]; 0.008 in experiment [3]; 0.016 in experiment [4]; 0.063 in experiment [5].

Regarding `C[C@@H]1CN(c2c(F)cc3c(=O)c(C(=O)O)cn4c3c2OC[C@@H]4C)C[C@@H]1CNC1CC1` [Example 14, (3S)-10-[(3S,4S)-3-cyclopropylaminomethyl-4-methyl-1-pyrrolidinyl]-9-fluoro-2,3-dihydro-3-methyl-7-oxo-7H-pyrido[1,2,3-d,e][1,4]benzoxazine-6-carboxylic acid], the MIC is 0.008 in experiment [1]; 31 µg/mL (≈ 74.6 µM) in experiment [2]; 0.008 in experiment [3]; “≦0.008 mg/mL” in experiment [4]; 0.063 in experiment [5].

Consider `O=C(O)c1cn2c3c(c(N4C[C@H](CNC5CC5)[C@H](F)C4)c(F)cc3c1=O)OC[C@@H]2CF` [Example 20, (3R)-10-[(3S,4S)-3-cyclopropylaminomethyl-4-fluoro-1-pyrrolidinyl]-9-fluoro-3-fluoromethyl-2,3-dihydro-7-oxo-7H-pyrido[1,2,3-d.e][1,4]benzoxazine-6-carboxylic acid], for which the MIC in experiment [1] is 0.016; in experiment [2] it was 63 µg/mL (≈ 144 µM); in experiment [3], 0.008; in experiment [4], 0.016; in experiment [5], 0.063.

With `C[C@H]1CN(c2c(F)cc3c(=O)c(C(=O)O)cn4c3c2OC[C@@H]4C)C[C@H]1CNC1CC1` (relative stereo) [Example 13, (3S)-10-(cis-3-cyclopropylaminomethyl-4-methyl-1-pyrrolidinyl)-9-fluoro-2,3-dihydro-3-methyl-7-oxo-7H-pyrido[1,2,3-d,e][1,4]benzoxazine-6-carboxylic acid], the MIC in experiment [1] was 0.008; in experiment [2] it was 31 µg/mL (≈ 74.6 µM); in experiment [3], 0.008; in experiment [4], 0.031; in experiment [5], 0.125.

Regarding `C[C@H]1CN(c2c(F)cc3c(=O)c(C(=O)O)cn4c3c2OC[C@@H]4C)C[C@H]1CNC1CC1` [Example 15, (3S)-10-[(3R,4R)-3-cyclopropylaminomethyl-4-methyl-1-pyrrolidinyl]-9-fluoro-2,3-dihydro-3-methyl-7-oxo-7H-pyrido[1,2,3-d,e][1,4]benzoxazine-6-carboxylic acid], the MIC in experiment [1] worked out at 0.031; in experiment [2], 63 µg/mL (≈ 152 µM); in experiment [3] it was 0.031; in experiment [4], 0.063; in experiment [5] it was 0.125.

`COC[C@H]1COc2c(N3CC[C@@H](CNC4CC4)C3)c(F)cc3c(=O)c(C(=O)O)cn1c23` [Example 4, (3S)-10-[(3S)-3-cyclopropylaminomethyl-1-pyrrolidinyl]-9-fluoro-2,3-dihydro-3-methoxymethyl-1-oxo-7H-pyrido[1,2,3-d,e][1,4]benzoxazine-6-carboxylic acid]: the MIC was determined as 0.031 in experiment [1]; 500 µg/mL (≈ 1160 µM) in experiment [2]; 0.031 in experiment [3]; 0.125 in experiment [4]; 0.25 in experiment [5].

As to `C[C@@H]1CN(c2c(F)cc3c(=O)c(C(=O)O)cn4c3c2OC[C@@H]4C)C[C@H]1CNC1CC1` [Example 12, (3S)-10-[(3R,4S)-3-cyclopropylaminomethyl-4-methyl-1-pyrrolidinyl]-9-fluoro-2,3-dihydro-3-methyl-7-oxo-7H-pyrido[1,2,3-d,e][1,4]benzoxazine-6-carboxylic acid], the MIC in experiment [1] is 0.016; in experiment [2], 63 µg/mL (≈ 152 µM); in experiment [3] it was 0.016; in experiment [4], 0.063; in experiment [5], 0.25.

Take `O=C(O)c1cn2c3c(c(N4CC[C@H](CNC5CC5)C4)c(F)cc3c1=O)OC[C@@H]2CF` [Example 2, (3R)-10-[(3R)-3-cyclopropylaminomethyl-1-pyrrolidinyl]-9-fluoro-3-fluoromethyl-2,3-dihydro-7-oxo-7H-pyrido[1,2,3-d,e][1,4]benzoxazine-6-carboxylic acid]: the MIC in experiment [1] came out at 0.016; in experiment [2], 250 µg/mL (≈ 596 µM); in experiment [3], 0.031; in experiment [4] it was 0.125; in experiment [5], 0.25.

For the molecule `C[C@H]1COc2c(N3C[C@@H](CNC4CC4)[C@H](C(F)(F)F)C3)c(F)cc3c(=O)c(C(=O)O)cn1c23` (relative stereo) [Example 19, (3S)-10-(trans-3-cyclopropylaminomethyl-4-trifluoromethyl-1-pyrrolidinyl)-9-fluoro-2,3-dihydro-3-methyl-7-oxo-7H-pyrido[1,2,3-d,e][1,4]benzoxazine-6-carboxylic acid], the MIC was determined as 0.016 in experiment [1]; 125 µg/mL (≈ 266 µM) in experiment [2]; 0.016 in experiment [3]; 0.125 in experiment [4]; 0.25 in experiment [5].

With `C[C@@H]1CN(c2c(F)cc3c(=O)c(C(=O)O)cn4c3c2OC[C@@H]4C)C[C@H]1CNC1CC1` (relative stereo) [Example 10, (3S)-10-(trans-3-cyclopropylaminomethyl-4-methyl-1-pyrrolidinyl)-9-fluoro-2,3-dihydro-3-methyl-7-oxo-7H-pyrido[1,2,3-d,e][1,4]benzoxazine-6-carboxylic acid], the MIC came out at 0.016 in experiment [1]; 63 µg/mL (≈ 152 µM) in experiment [2]; 0.016 in experiment [3]; 0.031 in experiment [4]; 0.125 in experiment [5].

The record behind these values is US7153851B2, “10-(3-cyclopropylaminomethyl-1-pyrrolidinyl)pyridobenzoxazinecarboxylic acid derivative effective against resistant bacterium” (Kyorin Pharmaceutical Co., Ltd., priority 2002, dated 2006).
